Measured values taken from patent publication US20180028471A1, “CONTINUOUS LOCAL SLOW-RELEASE OF THERAPEUTICS FOR HEAD AND NECK PROBLEMS AND UPPER AERODIGESTIVE DISORDERS” (Board of Supervisors of Louisiana State University and …, priority 2016, published 2018).

How the values were obtained:
[1] = test system: HNSCC cell lines; assay: Inhibition of cell proliferation in HNSCC cell lines; type: cell-based
Description: While curcumin can be used to treat these cancers, other compounds that act on these pathways may also be useful in treating these cancers and it should be readily recognized that such compounds could also be delivered by including in the formulations described herein.

[2] = test system: minimal residual disease; assay: Model of minimal residual disease (tumor formation, survival); type: in vivo
[3] = test system: mTOR pathway markers; assay: Phase 2 biomarker exploratory trial: mTOR pathway markers in tumors and PBMCs; type: in vivo; settings: HNSCC patients
Description: Criteria #1) Biomarker expression in normal tissue should be different from that in high risk tissue. In FIG. 2 we present an analysis of cancer (lanes 5, 6, 11, and 12) and non-cancer (patients with sleep apnea) (lanes1-4 and 7-10) patient samples. The cancer samples include tumors (T) and histologically tumor-free margins (M). […] Criteria #2) Biomarkers can be detected in small tissue specimens. In our studies we have successfully detected by western blots and even by IHC the various Akt/mTOR markers on samples often as small as 5 mm. Criteria #3) Biomarkers can be expressed in a quantity or pattern that can be correlated with the stage of carcinogenesis.

[4] = test system: prostate cancer xenograft; settings: p.o. gavage 5 mg/day, 5 days/week for 4 weeks; cited from earlier work
[5] = test system: normal fibroblast cell line CCL110; assay: Effects on normal fibroblast cell line CCL110 (proliferation); type: cell-based; settings: normal fibroblast cell line CCL110, FIG. 1
[6] = test system: tumor cells; assay: Chemoprevention model: pre-treatment before tumor cell injection, tumor volumes; type: in vivo, Balb/c nu/nu mice; settings: 10 mg, pre-treated 4 days before tumor cell injection, about three weeks
Method: Balb/c nu/nu mice were randomized into treatment groups. […] Tumors were measured over approximately three weeks. […] ANOVA analysis. […] This also points to its role as a chemopreventive agent rather than a therapeutic agent.

[7] = test system: DMBA-induced oral tumors; settings: 10 μmol topically to cheek pouch 3 times/week for 24 weeks; cited from earlier work
[8] = test system: PCI15a cells; assay: Modulation of NFκB and Akt/mTOR pathways in PCI15a cells; type: cell-based; settings: 10 μM
[9] = test system: TPA-induced tumor promotion on mouse skin; settings: topical application of 10 μmol twice weekly; cited from earlier work
[10] = test system: SCC40 xenografts; assay: pAkt and pS6 in SCC40 xenografts of treated mice; type: in vivo; settings: mice with SCC40 xenografts, FIG. 3B
[11] = test system: SCC066; assay: Modulation of NFκB and Akt/mTOR pathways in SCC066 cells; type: cell-based; settings: 10 μM, 24 and 48 hours
[12] = test system: SCC40 cells; assay: Modulation of NFκB and Akt/mTOR pathways in SCC40 cells; type: cell-based; settings: 10 μM
[13] = test system: normal fibroblast cell line CCL110; assay: Modulation of NFκB and Akt/mTOR pathways in CCL110 normal fibroblasts; type: cell-based; settings: 10 μM, 24 and 48 hours

CO[C@H]1C[C@@H]2CC[C@@H](C)[C@@](O)(O2)C(=O)C(=O)N2CCCC[C@H]2C(=O)O[C@H]([C@H](C)C[C@@H]2CC[C@@H](OCCO)[C@H](OC)C2)CC(=O)[C@H](C)/C=C(\C)[C@@H](O)[C@@H](OC)C(=O)[C@H](C)C[C@H](C)/C=C/C=C/C=C/1C [RAD001, everolimus, reference compound]
sensitivity of a variety of cell lines [1]: wide range of sensitivity

CO[C@H]1C[C@@H]2CC[C@@H](C)[C@@](O)(O2)C(=O)C(=O)N2CCCC[C@H]2C(=O)O[C@H]([C@H](C)C[C@@H]2CC[C@@H](OC(=O)C(C)(CO)CO)[C@H](OC)C2)CC(=O)[C@H](C)/C=C(\C)[C@@H](O)[C@@H](OC)C(=O)[C@H](C)C[C@H](C)/C=C/C=C/C=C/1C [CCI-779, temsirolimus]
survival [2]: improve survival | tumor formation [2]: inhibit tumor formation | mTOR pathway markers in tumors and PBMCs [3]: modulation of these markers

COc1cc(/C=C/C(=O)CC(=O)/C=C/c2ccc(O)c(OC)c2)ccc1O [curcumin]
inhibition of growth of prostate cancer xenograft [4]: ~50% | dose required to see effects [5]: 20 to 40 µM | tumor volumes versus control (vehicle treated) [6]: no significant difference | reduction of the number of DMBA-induced oral tumors [7]: ~40% | pNFκB ([8]; 24 and 48 hours): no change | pAkt ([8]; 48 hours): down-regulated | pS6 downstream of mTOR ([8]; 48 hours): down-regulated | inhibition of the number of tumors per mouse [9]: 98% | pAkt [10]: significant decrease | pS6 [10]: significant decrease | Akt/mTOR pathway [11]: did not show any modulation | Akt/mTOR pathway ([12]; 24 and 48 hours): no change | pNFκB ([12]; after 48 hours): down-regulation | growth inhibitory effects on all HNSCC cell lines tested ([1]; all 10 HNSCC cell lines tested to date): growth inhibitory effects | cell proliferation at 10 μM ([1]; all HNSCC cell lines, 10 μM, FIG. 1): inhibition of cell proliferation | growth inhibitory effects at 48 hours ([1]; all three HNSCC cell lines, 48 hours): significant growth inhibitory effects | concentration giving consistent inhibition of cell proliferation ([1]; variety of HNSCC cell lines, in vitro, FIG. 1): less than 10 μM | sensitivity of a variety of cell lines [1]: consistently sensitive | pNFκB or Akt/mTOR [13]: no decrease
